Measurements: the NIST ThermoML archive (doi:10.1016/j.jct.2008.10.002)
± gives the expanded uncertainty stated by the source.

Experiments:
[1] = excess molar enthalpy (molar enthalpy of mixing); xn = mol fraction of the nth substance listed; settings: 303.15 K, 101.3 kPa, Liquid
[2] = xn = mol fraction of the nth substance listed; settings: 101.3 kPa, Liquid, Vibrating tube method
[3] = molar heat capacity at constant pressure; xn = mol fraction of the nth substance listed; settings: 101.3 kPa, Liquid, Small sample (50 mg) DSC

CCOS(=O)(=O)[O-].CCn1cc[n+](C)c1 [1-ethyl-3-methylimidazolium ethyl sulfate] + O
[1]
Settings	excess molar enthalpy [kJ/mol]
x1 = 0.0504	-0.482 ± 0.012
x1 = 0.0997	-0.767 ± 0.017
x1 = 0.1468	-0.915 ± 0.02
x1 = 0.2004	-0.986 ± 0.022
x1 = 0.2921	-0.968 ± 0.021
x1 = 0.3935	-0.853 ± 0.019
x1 = 0.4806	-0.794 ± 0.018
x1 = 0.5727	-0.655 ± 0.015
x1 = 0.6687	-0.52 ± 0.012
x1 = 0.8212	-0.285 ± 0.008

Settings	mass density, [2] [kg/m3]	molar heat capacity at constant pressure, [3] [J/K/mol]
293.15 K, x1 = 0.0477	1084.8 ± 0.4	92.6 ± 1.4
293.15 K, x1 = 0.1033	1138.7 ± 0.4	109.8 ± 1.7
293.15 K, x1 = 0.2048	1184.3 ± 0.4	140.4 ± 2.2
293.15 K, x1 = 0.2943	1203.3 ± 0.4	167.1 ± 2.6
293.15 K, x1 = 0.3847	1214.7 ± 0.4	194.3 ± 3
293.15 K, x1 = 0.4774	1222.5 ± 0.4	222.7 ± 3.5
293.15 K, x1 = 0.5797	1228.5 ± 0.4	254.6 ± 3.9
293.15 K, x1 = 0.6632	1232 ± 0.4	281.3 ± 4.4
293.15 K, x1 = 0.8092	1236.6 ± 0.4	328.9 ± 5.1
293.15 K, x1 = 0.907	1238.9 ± 0.4	360.9 ± 5.6
298.15 K, x1 = 0.0477	1082.3 ± 0.4	92.9 ± 1.4
298.15 K, x1 = 0.1033	1135.4 ± 0.4	110.5 ± 1.7
298.15 K, x1 = 0.2048	1180.8 ± 0.4	141.4 ± 2.2
298.15 K, x1 = 0.2943	1199.8 ± 0.4	168.3 ± 2.6
298.15 K, x1 = 0.3847	1211.3 ± 0.4	195.7 ± 3
298.15 K, x1 = 0.4774	1219.1 ± 0.4	224.2 ± 3.5
298.15 K, x1 = 0.5797	1225 ± 0.4	256.2 ± 4
298.15 K, x1 = 0.6632	1228.6 ± 0.4	283.1 ± 4.4
298.15 K, x1 = 0.8092	1233.2 ± 0.4	330.9 ± 5.1
298.15 K, x1 = 0.907	1235.5 ± 0.4	363.1 ± 5.6
303.15 K, x1 = 0.0477	1079.6 ± 0.4	93.3 ± 1.4
303.15 K, x1 = 0.1033	1132.1 ± 0.4	111.2 ± 1.7
303.15 K, x1 = 0.2048	1177.2 ± 0.4	142.6 ± 2.2
303.15 K, x1 = 0.2943	1196.3 ± 0.4	169.7 ± 2.6
303.15 K, x1 = 0.3847	1207.8 ± 0.4	197.1 ± 3.1
303.15 K, x1 = 0.4774	1215.6 ± 0.4	225.8 ± 3.5
303.15 K, x1 = 0.5797	1221.6 ± 0.4	258 ± 4
303.15 K, x1 = 0.6632	1225.2 ± 0.4	285 ± 4.4
303.15 K, x1 = 0.8092	1229.8 ± 0.4	333 ± 5.2
303.15 K, x1 = 0.907	1232.1 ± 0.4	365.3 ± 5.7
308.15 K, x1 = 0.0477	1076.9 ± 0.4	93.6 ± 1.5
308.15 K, x1 = 0.1033	1128.7 ± 0.4	111.9 ± 1.7
308.15 K, x1 = 0.2048	1173.6 ± 0.4	143.7 ± 2.2
308.15 K, x1 = 0.2943	1192.7 ± 0.4	171 ± 2.7
308.15 K, x1 = 0.3847	1204.3 ± 0.4	198.6 ± 3.1
308.15 K, x1 = 0.4774	1212.2 ± 0.4	227.5 ± 3.5
308.15 K, x1 = 0.5797	1218.2 ± 0.4	259.9 ± 4
308.15 K, x1 = 0.6632	1221.8 ± 0.4	287.1 ± 4.4
308.15 K, x1 = 0.8092	1226.4 ± 0.4	335.3 ± 5.2
308.15 K, x1 = 0.907	1228.7 ± 0.4	367.7 ± 5.7
313.15 K, x1 = 0.0477	1073.9 ± 0.4	93.9 ± 1.5
313.15 K, x1 = 0.1033	1125.3 ± 0.4	112.7 ± 1.7
313.15 K, x1 = 0.2048	1170 ± 0.4	144.9 ± 2.2
313.15 K, x1 = 0.2943	1189.2 ± 0.4	172.4 ± 2.7
313.15 K, x1 = 0.3847	1200.8 ± 0.4	200.3 ± 3.1
313.15 K, x1 = 0.4774	1208.7 ± 0.4	229.3 ± 3.6
313.15 K, x1 = 0.5797	1214.8 ± 0.4	261.8 ± 4.1
313.15 K, x1 = 0.6632	1218.4 ± 0.4	289.2 ± 4.5
313.15 K, x1 = 0.8092	1223 ± 0.4	337.7 ± 5.2
313.15 K, x1 = 0.907	1225.3 ± 0.4	370.3 ± 5.7
318.15 K, x1 = 0.0477	1071 ± 0.4	94.4 ± 1.5
318.15 K, x1 = 0.1033	1121.8 ± 0.4	113.6 ± 1.8
318.15 K, x1 = 0.2048	1166.4 ± 0.4	146.2 ± 2.3
318.15 K, x1 = 0.2943	1185.6 ± 0.4	173.9 ± 2.7
318.15 K, x1 = 0.3847	1197.3 ± 0.4	202 ± 3.1
318.15 K, x1 = 0.4774	1205.3 ± 0.4	231.2 ± 3.6
318.15 K, x1 = 0.5797	1211.3 ± 0.4	263.9 ± 4.1
318.15 K, x1 = 0.6632	1215 ± 0.4	291.6 ± 4.5
318.15 K, x1 = 0.8092	1219.6 ± 0.4	340.3 ± 5.3
318.15 K, x1 = 0.907	1221.9 ± 0.4	373 ± 5.8

CCn1cc[n+](C)c1.O=S(=O)([O-])C(F)(F)F [1-ethyl-3-methylimidazolium trifluoromethanesulfonate] + O
[1]
Settings	excess molar enthalpy [kJ/mol]
x1 = 0.1012	0.487 ± 0.012
x1 = 0.1943	0.794 ± 0.018
x1 = 0.2959	0.991 ± 0.022
x1 = 0.4031	1.07 ± 0.023
x1 = 0.4921	1.06 ± 0.023
x1 = 0.5929	0.964 ± 0.021
x1 = 0.6997	0.763 ± 0.017
x1 = 0.7805	0.601 ± 0.014
x1 = 0.844	0.448 ± 0.011

Settings	mass density, [2] [kg/m3]	molar heat capacity at constant pressure, [3] [J/K/mol]
293.15 K, x1 = 0.0186	1063.6 ± 0.6	83.2 ± 1.3
293.15 K, x1 = 0.0522	1142.6 ± 0.5	94.2 ± 1.5
293.15 K, x1 = 0.0995	1208.9 ± 0.5	108.1 ± 1.7
293.15 K, x1 = 0.2037	1282.4 ± 0.5	138 ± 2.1
293.15 K, x1 = 0.2952	1315.7 ± 0.5	163.5 ± 2.5
293.15 K, x1 = 0.3868	1336.6 ± 0.5	188.5 ± 2.9
293.15 K, x1 = 0.4761	1350.7 ± 0.5	213.2 ± 3.3
293.15 K, x1 = 0.5771	1362.4 ± 0.5	240.9 ± 3.7
293.15 K, x1 = 0.6617	1370 ± 0.5	264 ± 4.1
293.15 K, x1 = 0.8398	1381.8 ± 0.6	314.4 ± 4.9
293.15 K, x1 = 0.8646	1383.1 ± 0.6	321.6 ± 5
298.15 K, x1 = 0.0186	1061.7 ± 0.6	83.1 ± 1.3
298.15 K, x1 = 0.0522	1139.6 ± 0.5	94.3 ± 1.5
298.15 K, x1 = 0.0995	1205.3 ± 0.5	108.6 ± 1.7
298.15 K, x1 = 0.2037	1278.3 ± 0.5	138.9 ± 2.2
298.15 K, x1 = 0.2952	1311.5 ± 0.5	164.5 ± 2.5
298.15 K, x1 = 0.3868	1332.4 ± 0.5	189.7 ± 2.9
298.15 K, x1 = 0.4761	1346.4 ± 0.5	214.5 ± 3.3
298.15 K, x1 = 0.5771	1358.1 ± 0.5	242.3 ± 3.8
298.15 K, x1 = 0.6617	1365.7 ± 0.5	265.6 ± 4.1
298.15 K, x1 = 0.8398	1377.5 ± 0.6	316.3 ± 4.9
298.15 K, x1 = 0.8646	1378.8 ± 0.6	323.5 ± 5
303.15 K, x1 = 0.0186	1059.5 ± 0.6	83.2 ± 1.3
303.15 K, x1 = 0.0522	1136.5 ± 0.5	94.6 ± 1.5
303.15 K, x1 = 0.0995	1201.6 ± 0.4	109.2 ± 1.7
303.15 K, x1 = 0.2037	1274.2 ± 0.5	139.9 ± 2.2
303.15 K, x1 = 0.2952	1307.2 ± 0.5	165.6 ± 2.6
303.15 K, x1 = 0.3868	1328.1 ± 0.5	190.9 ± 3
303.15 K, x1 = 0.4761	1342.2 ± 0.5	215.8 ± 3.3
303.15 K, x1 = 0.5771	1353.9 ± 0.5	243.8 ± 3.8
303.15 K, x1 = 0.6617	1361.5 ± 0.5	267.3 ± 4.1
303.15 K, x1 = 0.8398	1373.3 ± 0.6	318.2 ± 4.9
303.15 K, x1 = 0.8646	1374.6 ± 0.6	325.5 ± 5
308.15 K, x1 = 0.0186	1057.2 ± 0.6	83.1 ± 1.3
308.15 K, x1 = 0.0522	1133.3 ± 0.5	94.7 ± 1.5
308.15 K, x1 = 0.0995	1197.8 ± 0.4	109.6 ± 1.7
308.15 K, x1 = 0.2037	1270 ± 0.5	140.7 ± 2.2
308.15 K, x1 = 0.2952	1303 ± 0.5	166.6 ± 2.6
308.15 K, x1 = 0.3868	1323.9 ± 0.5	192.1 ± 3
308.15 K, x1 = 0.4761	1337.9 ± 0.5	217.1 ± 3.4
308.15 K, x1 = 0.5771	1349.7 ± 0.5	245.3 ± 3.8
308.15 K, x1 = 0.6617	1357.3 ± 0.5	269 ± 4.2
308.15 K, x1 = 0.8398	1369.1 ± 0.5	320.2 ± 5
308.15 K, x1 = 0.8646	1370.4 ± 0.6	327.5 ± 5.1
313.15 K, x1 = 0.0186	1054.7 ± 0.6	83.2 ± 1.3
313.15 K, x1 = 0.0522	1130 ± 0.5	95 ± 1.5
313.15 K, x1 = 0.0995	1193.9 ± 0.4	110.1 ± 1.7
313.15 K, x1 = 0.2037	1265.8 ± 0.5	141.5 ± 2.2
313.15 K, x1 = 0.2952	1298.7 ± 0.5	167.7 ± 2.6
313.15 K, x1 = 0.3868	1319.6 ± 0.5	193.3 ± 3
313.15 K, x1 = 0.4761	1333.7 ± 0.5	218.5 ± 3.4
313.15 K, x1 = 0.5771	1345.4 ± 0.5	246.9 ± 3.8
313.15 K, x1 = 0.6617	1353.1 ± 0.5	270.8 ± 4.2
313.15 K, x1 = 0.8398	1364.9 ± 0.5	322.1 ± 5
313.15 K, x1 = 0.8646	1366.3 ± 0.5	329.6 ± 5.1
318.15 K, x1 = 0.0186	1052.1 ± 0.5	83.4 ± 1.3
318.15 K, x1 = 0.0522	1126.7 ± 0.5	95.4 ± 1.5
318.15 K, x1 = 0.0995	1190.1 ± 0.4	110.6 ± 1.7
318.15 K, x1 = 0.2037	1261.6 ± 0.5	142.4 ± 2.2
318.15 K, x1 = 0.2952	1294.4 ± 0.5	168.8 ± 2.6
318.15 K, x1 = 0.3868	1315.3 ± 0.5	194.6 ± 3
318.15 K, x1 = 0.4761	1329.4 ± 0.5	220 ± 3.4
318.15 K, x1 = 0.5771	1341.2 ± 0.5	248.5 ± 3.9
318.15 K, x1 = 0.6617	1348.9 ± 0.5	272.6 ± 4.2
318.15 K, x1 = 0.8398	1360.8 ± 0.5	324.2 ± 5
318.15 K, x1 = 0.8646	1362.1 ± 0.5	331.7 ± 5.1
